Test results as given in patent EP0326640B1, “(1R,5S,6S)-2-substituted thio-6 (R)-1-hydroxyethyl -1-methyl-carbapenem - carboxylic acid derivatives” (LEDERLE (JAPAN) LTD., priority 1987, dated 1989).

Key:
[1] = tested on: Klebsiella oxytoca GN 10650; test: Antibacterial activity against clinically isolated β-lactamase (cephalosporinase) producing strains (MIC); format: cell-based; details: Klebsiella oxytoca GN 10650; cephalosporinase producing strain, SDA, 18 to 20 hours
Method: (§1) The antibacterial activities against clinically isolated β-lactamase producing strains were tested by the agar plate dilution method in accordance with the standard method of The Japanese Chemotherapy Society [Chemotherapy, Vol. 29, 76-79 (1981)]. A solution of a cephalosporinase producing strain stored by Episome Research Institute, prepared by incubating the strain in a sensitivity test broth (STB; product of Nissui K. K.) for 18 hours, was diluted with a fresh STB solution so that the solution contained 10⁶ cells per milliliter. The diluted solution was then inoculated as spots in a microplanter on a sensitivity disk agar-N (SDA; product of Nissui K. K.) containing a test compound. The disk agar was then incubated for 18 to 20 hours. The minimum inhibitory concentration was determined as a minimum concentration in which the test microorganism no longer grew after a 18 to 20-hour incubation.

Escherichia coli No. 96 = test: as above; format: cell-based; details: cephalosporinase producing strain, SDA, 18 to 20 hours
Method: as §1

[2] = tested on: Enterobacter cloacae GN 7467; test: as above; format: cell-based; details: Enterobacter cloacae, GN7467, Enterobacter cloacae GN 7467; cephalosporinase producing strain, SDA, 18 to 20 hours
Method: as §1

Serratia marcescens L-82 = test: as above; format: cell-based; details: cephalosporinase producing strain, SDA, 18 to 20 hours
Method: as §1

[3] = tested on: Pseudomonas aeruginosa GN 10362; test: as above; format: cell-based; details: cephalosporinase producing strain, SDA, 18 to 20 hours
Method: as §1

[4] = tested on: Pseudomonas aeruginosa GN 10367; test: as above; format: cell-based; details: GN10367; Pseudomonas aeruginosa GN 10367; cephalosporinase producing strain, SDA, 18 to 20 hours; read-out: MIC
Method: as §1

Serratia marcescens L-65 = test: as above; format: cell-based; details: Serratia marcescens L-65; cephalosporinase producing strain, SDA, 18 to 20 hours
Method: as §1

Proteus vulgaris GN 7919 = test: as above; format: cell-based; details: Proteus vulgaris GN 7919; cephalosporinase producing strain, SDA, 18 to 20 hours
Method: as §1

[5] = tested on: Citrobactor freundii GN 346; test: as above; format: cell-based; details: cephalosporinase producing strain, SDA, 18 to 20 hours
Method: as §1

[6] = tested on: Providencia rettgeri GN 4762; test: as above; format: cell-based; details: Providencia rettgeri GN 4762; cephalosporinase producing strain, SDA, 18 to 20 hours
Method: as §1

[7] = tested on: Serratia marcescens GN 10857; test: as above; format: cell-based; details: Serratia marcescens GN 10857; cephalosporinase producing strain, SDA, 18 to 20 hours
Method: as §1

[8] = tested on: Pseudomonas cepacia GN 11164; test: as above; format: cell-based; details: cephalosporinase producing strain, SDA, 18 to 20 hours
Method: as §1

Proteus vulgaris GN 76 = test: as above; format: cell-based; details: Proteus vulgaris GN 76; cephalosporinase producing strain, SDA, 18 to 20 hours
Method: as §1

Proteus morganii GN 5307 = test: as above; format: cell-based; details: Proteus morganii GN 5307; cephalosporinase producing strain, SDA, 18 to 20 hours
Method: as §1

[9] = tested on: Enterobacter cloacae GN 7471; test: as above; format: cell-based; details: cephalosporinase producing strain, SDA, 18 to 20 hours
Method: as §1

[10] = tested on: Pseudomonas aeruginosa GN 918; test: as above; format: cell-based; details: Pseudomonas aeruginosa, GN918, Pseudomonas aeruginosa GN 918; cephalosporinase producing strain, SDA, 18 to 20 hours
Method: as §1

[11] = tested on: Citrobactor freundii GN 7391; test: as above; format: cell-based; details: cephalosporinase producing strain, SDA, 18 to 20 hours
Method: as §1

Proteus morganii GN 5407 = test: as above; format: cell-based; details: Morganella morganii, GN5407, cephalosporinase producing strain, SDA, 18 to 20 hours
Method: as §1

Proteus vulgaris GN 4413 = test: as above; format: cell-based; details: Proteus vulgaris GN 4413; cephalosporinase producing strain, SDA, 18 to 20 hours
Method: as §1

[12] = tested on: Escherichia coli No. 1501; test: as above; format: cell-based; details: cephalosporinase producing strain, SDA, 18 to 20 hours
Method: as §1

Escherichia coli GN 5482 = test: as above; format: cell-based; details: cephalosporinase producing strain, SDA, 18 to 20 hours
Method: as §1

[13] = tested on: Providencia rettgeri GN 5284; test: as above; format: cell-based; details: cephalosporinase producing strain, SDA, 18 to 20 hours
Method: as §1

[14] = tested on: Enterobacter cloacae GN 5797; test: as above; format: cell-based; details: cephalosporinase producing strain, SDA, 18 to 20 hours
Method: as §1

[15] = tested on: Providencia rettgeri GN 4430; test: as above; format: cell-based; details: cephalosporinase producing strain, SDA, 18 to 20 hours
Method: as §1

Proteus morganii GN 5375 = test: as above; format: cell-based; details: Morganella morganii, GN5375, cephalosporinase producing strain, SDA, 18 to 20 hours
Method: as §1

[16] = tested on: Serratia marcescens IAM1184; test: Antibacterial test, agar plate dilution method (MIC), standard strains; format: cell-based; details: MH agar, 37°C, 18 hours
Method: (§2) The antibacterial activities were tested by an agar plate dilution method in accordance with the standard method of The Japanese Chemotherapy Society [Chemotherapy, Vol. 29, 76-79 (1981)].
(§3) A Mueller-Hinton (MH) agar liquid medium of a test microorganism was cultured overnight at 37°C and the resultant culture medium was diluted with a buffered saline gelatin (BSG) solution to contain approximately 10⁶ cells of the test microorganisms per milliliter, and then the diluted solution was inoculated with a microplanter at the rate of approximately 5 microliters on a MH agar medium containing a test compound. This medium was then incubated at 37°C for 18 hours. The minimum inhibitory concentration (MIC) is determined as a minimum concentration in which no test microorganism could grow. It is noted here that the test organisms used were all standard strains.

[17] = tested on: Pseudomanas aeruginosa NCTC 10940; test: as above; format: cell-based; details: MH agar, 37°C, 18 hours
Method: as §2, §3

[18] = tested on: Morganella morganii IFO3848; test: as above; format: cell-based; details: MH agar, 37°C, 18 hours
Method: as §2, §3

[19] = tested on: Salmonella enteritidis G14; test: as above; format: cell-based; details: Salmonella enterica, MH agar, 37°C, 18 hours, read-out: MIC
Method: as §2, §3

[20] = tested on: Salmonella schottmuelleri 8006; test: as above; format: cell-based; details: MH agar, 37°C, 18 hours
Method: as §2, §3

Salmonella typhi 901 = test: as above; format: cell-based; details: MH agar, 37°C, 18 hours
Method: as §2, §3

Proteus vulgaris OX-19 = test: as above; format: cell-based; details: Proteus vulgaris OX-19; MH agar, 37°C, 18 hours
Method: as §2, §3

Proteus vulgaris HX-19 = test: as above; format: cell-based; details: Proteus vulgaris HX-19; MH agar, 37°C, 18 hours
Method: as §2, §3

[21] = tested on: Pseudomonas aeruginosa IFO 3445; test: as above; format: cell-based; details: MH agar, 37°C, 18 hours
Method: as §2, §3

[22] = tested on: Providencia rettgeri IFO 3850; test: as above; format: cell-based; details: MH agar, 37°C, 18 hours
Method: as §2, §3

[23] = tested on: Proteus mirabilis IFO3849; test: as above; format: cell-based; details: Proteus mirabilis IFO3849; MH agar, 37°C, 18 hours
Method: as §2, §3

[24] = tested on: Salmonella paratyphi 1015; test: as above; format: cell-based; details: MH agar, 37°C, 18 hours
Method: as §2, §3

[25] = tested on: male mice of CrjCD(SD) strain; test: Toxicity, intravenous administration to mice, observation for one week; format: in vivo; details: 500 mg/kg administered intravenously; group of 10 male mice
Method: Toxicological studies were carried out using a group of 10 male mice of CrjCD(SD) strain weighing from 20 to 23 grams. A solution containing the crystalline carbapenem compound (20) of the present invention obtained by Example 11 was administered intravenously to the mice and subjected to observations for one week.

[26] = tested on: P. aeruginosa resistant strains; test: Sensitivity test against clinical isolates, agar plate dilution method; format: cell-based
Method: The test procedures were based on the agar plate dilution method in accordance with the standard method of The Japanese Chemotherapy Society. The minimum inhibitory concentration (MIC) was determined in substantially the same manner as the test procedures II above using the 54 strains of P. aeruginosa having an anti-Pseudomonas resistance.

[27] = molecular target: T1, Swine Kidney Dehydropeptidase-I (DHP-I) (Sus scrofa, UniProt P22412); test: Hydrolysis activity against DHP-I enzyme substrate by late assay; format: in vitro ADME; details: substrate concentration 100 µM, 37°C, 10 minutes
T1 construct: made soluble by treatment with butanol and purified by the ammonium sulfate fraction method, thereby producing DHP-I enzyme from a 75% ammonium sulfate fraction; from tissue; host or cells: swine kidney
Method: The swine kidney (8 kg) was homogenized and the enzyme protein was allowed to precipitate. After a connective lipid was removed with acetone, the resultant material was made soluble by treatment with butanol and purified by the ammonium sulfate fraction method, thereby producing DHP-I enzyme from a 75% ammonium sulfate fraction. The DHP-I enzyme was then adjusted to give an enzyme concentration of 25 mg/10 ml (phosphate buffer, pH 7.1), and divided into 1 ml portions. The portions were frozen and stored at -40°C or less until use. Glycyl dehydrophenylalanine (Gl-dh-Ph) and imipenem were employed as control compounds, and they were adjusted in situ each to give a concentration of 117 µM with the same sodium phosphate buffer solution. […] The solution was then incubated at 37°C for 10 minutes. The initial velocity of hydrolysis of the substrate was measured from a decrease in absorbency at a particular λmax of each of the substrates. A blank test was conducted in substantially the same manner as above by adding 0.2 ml of the sodium phosphate buffer solution (pH 7.1) to 1.2 ml of the above substrate.

T1 sequence (P22412 17-384): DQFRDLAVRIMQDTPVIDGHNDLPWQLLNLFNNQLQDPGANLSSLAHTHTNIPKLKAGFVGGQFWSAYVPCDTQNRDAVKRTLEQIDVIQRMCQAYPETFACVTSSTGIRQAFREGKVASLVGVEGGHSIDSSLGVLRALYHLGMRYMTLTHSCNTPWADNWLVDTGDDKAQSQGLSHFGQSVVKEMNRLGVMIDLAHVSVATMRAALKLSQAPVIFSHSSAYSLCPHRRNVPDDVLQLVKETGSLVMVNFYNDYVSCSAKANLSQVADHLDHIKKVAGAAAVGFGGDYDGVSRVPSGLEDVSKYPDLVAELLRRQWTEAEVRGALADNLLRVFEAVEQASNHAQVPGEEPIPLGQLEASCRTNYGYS

C[C@@H](O)[C@H]1C(=O)N2C(C(=O)[O-])=C(SCc3cs[n+](C)n3)[C@H](C)[C@H]12 [Crystalline Compd. (20), (1R,5S,6S)-2-[(2-methyl-1,2,3-thiadiazolium-4-yl)methyl]thio-6-[(R)-1-hydroxyethyl]-1-methyl-carbapenem-3-carboxylate]
0.39 µg/mL: MIC (Serratia marcescens L-65) | MIC [8] | MIC [13] | MIC [15] | MIC [20] | MIC [21]
0.1 µg/mL: MIC [9] | MIC [14]
1.56 µg/mL: MIC [2] | MIC [10] | MIC (Proteus morganii GN 5407) | MIC (Proteus morganii GN 5375) | MIC (Proteus vulgaris OX-19) | MIC (Proteus vulgaris HX-19) | MIC [24]
0.2 µg/mL: MIC [1] | MIC (Serratia marcescens L-82) | MIC [6] | MIC [17] | MIC [18]
~99%: percent of strains inhibited at 3.13 µg/mL ([26]; Pseudomonas aeruginosa, read-out: test microorganisms whose growth is inhibited)
3.13 µg/mL: MIC [4] | MIC [7] | MIC (Proteus vulgaris GN 76) | MIC (Proteus vulgaris GN 4413) | MIC [23]
0.78 µg/mL: MIC [3] | MIC (Proteus vulgaris GN 7919) | MIC [5] | MIC (Proteus morganii GN 5307) | MIC [11] | MIC [16] | MIC [19]
0.05 µg/mL: MIC (Escherichia coli No. 96) | MIC [12] | MIC (Escherichia coli GN 5482)
0.025 µg/mL: MIC [22]
alive without any abnormal observations: toxicity, observations for one week [25]
6.25 µg/mL: concentration to inhibit the growth of all the test microorganisms [26]
0.013 µg/mL: MIC (Salmonella typhi 901)

NCC(=O)NC(=Cc1ccccc1)C(=O)O [Gl-dh-Ph, Glycyl dehydrophenylalanine]
17.4 µM/min: initial velocity of hydrolysis [27]
